In US8492401B2, “Thiazolopyridine sirtuin modulating compounds” (Sirtris Pharmaceuticals, priority 2008, dated 2013):

Biological target: T1, SIRT1 (Homo sapiens, UniProt Q96EB6)
T1 sequence (Q96EB6 1-747): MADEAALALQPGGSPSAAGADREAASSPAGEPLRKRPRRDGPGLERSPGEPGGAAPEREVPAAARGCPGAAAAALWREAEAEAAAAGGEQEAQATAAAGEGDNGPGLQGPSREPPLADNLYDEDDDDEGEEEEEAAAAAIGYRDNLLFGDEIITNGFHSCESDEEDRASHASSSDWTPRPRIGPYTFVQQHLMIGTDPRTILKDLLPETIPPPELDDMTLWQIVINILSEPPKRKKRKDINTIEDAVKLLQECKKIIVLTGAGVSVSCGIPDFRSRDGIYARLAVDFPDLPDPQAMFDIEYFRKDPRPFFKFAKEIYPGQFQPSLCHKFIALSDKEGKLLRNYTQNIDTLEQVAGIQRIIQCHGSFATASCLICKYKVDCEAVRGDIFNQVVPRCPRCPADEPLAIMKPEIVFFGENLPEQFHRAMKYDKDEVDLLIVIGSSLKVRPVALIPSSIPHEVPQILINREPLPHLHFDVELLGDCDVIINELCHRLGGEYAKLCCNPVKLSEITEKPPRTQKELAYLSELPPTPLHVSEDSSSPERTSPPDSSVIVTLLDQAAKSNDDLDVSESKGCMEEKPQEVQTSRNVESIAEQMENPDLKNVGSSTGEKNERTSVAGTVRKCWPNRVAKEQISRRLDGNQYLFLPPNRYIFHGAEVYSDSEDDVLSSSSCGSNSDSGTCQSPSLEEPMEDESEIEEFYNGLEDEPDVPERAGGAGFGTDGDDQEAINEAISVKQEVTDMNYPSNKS
Experiment: Mass spectrometry based assay to identify modulators (activators) of SIRT1 activity
Assay type: biochemical
Conditions: 0.5 μM peptide substrate, 120 μM βNAD+, 10 nM SIRT1, 25 minutes at 25° C.; for EC1.5: SIRT1 activation
From the text: A mass spectrometry based assay was used to identify modulators of SIRT1 activity. The mass spectrometry based assay utilizes a peptide having 20 amino acid residues as follows: Ac-EE-K(biotin)-GQSTSSHSK(Ac)NleSTEG-K(5TMR)-EE-NH2 (SEQ ID NO: 1) wherein K(Ac) is an acetylated lysine residue and Nle is a norleucine. The peptide is labeled with the fluorophore 5TMR (excitation 540 nm/emission 580 nm) at the C-terminus. The sequence of the peptide substrate is based on p53 with several modifications. In addition, the methionine residue naturally present in the sequence was replaced with the norleucine because the methionine may be susceptible to oxidation during synthesis and purification.
The mass spectrometry assay is conducted as follows: 0.5 μM peptide substrate and 120 μM βNAD^+ is incubated with 10 nM SIRT1 for 25 minutes at 25° C. in a reaction buffer (50 mM Tris-acetate pH 8, 137 mM NaCl, 2.7 mM KCl, 1 mM MgCl2, 5 mM DTT, 0.05% BSA). Test compounds may be added to the reaction as described above. […] After the 25 minute incubation with SIRT1, 10 μL of 10% formic acid is added to stop the reaction. Reactions are sealed and frozen for later mass spec analysis. Determination of the mass of the substrate peptide allows for precise determination of the degree of acetylation (i.e. starting material) as compared to deacetylated peptide (product).
A control for inhibition of sirtuin activity is conducted by adding 1 μL of 500 mM nicotinamide as a negative control at the start of the reaction (e.g., permits determination of maximum sirtuin inhibition). A control for activation of sirtuin activity is conducted using 10 nM of sirtuin protein, with 1 μL of DMSO in place of compound, to determine the amount of deacetylation of the substrate at a given timepoint within the linear range of the assay. This timepoint is the same as that used for test compounds and, within the linear range, the endpoint represents a change in velocity.
For the above assay, SIRT1 protein was expressed and purified as follows. […] The protein was expressed by induction with 1 mM IPTG as an N-terminal His-tag fusion protein at 18° C. overnight and harvested at 30,000×g. Cells were lysed with lysozyme in lysis buffer (50 mM Tris-HCl, 2 mM Tris[2-carboxyethyl]phosphine (TCEP), 10 μM ZnCl2, 200 mM NaCl) and further treated with sonication for 10 min for complete lysis. The protein was purified over a Ni-NTA column (Amersham) and fractions containing pure protein were pooled, concentrated and run over a sizing column (Sephadex S200 26/60 global). The peak containing soluble protein was collected and run on an Ion-exchange column (MonoQ). Gradient elution (200 mM-500 mM NaCl) yielded pure protein. This protein was concentrated and dialyzed against dialysis buffer (20 mM Tris-HCl, 2 mM TCEP) overnight. The protein was aliquoted and frozen at −80° C. until further use.
Sirtuin modulating compounds that activated SIRT1 were identified using the assay described above and are shown below in Table 1. The EC1.5 values for the activating compounds are represented by A (EC1.5≦1 uM), B (EC1.5>1 and ≦10 uM), or C (EC1.5>10 uM). The percent maximum fold activation is represented by A (Fold activation≧300%), B (Fold Activation≧150% and <300%), or C (Fold Activation<150%).

## COCCN1CCN(Cc2sc(-c3ccccc3)nc2C(=O)Nc2ccccc2-c2nc3cccnc3s2)CC1 [Compound 12, 5-((4-(2-methoxyethyl)piperazin-1-yl)methyl)-2-phenyl-N-(2-(thiazolo[5,4-b]pyridin-2-yl)phenyl)thiazole-4-carboxamide]
  FOLD ACT. (percent maximum fold activation): A (Fold activation≧300%)
  EC1.5: A (EC1.5≦1 uM)

## O=C(Nc1ccccc1-c1nc2cccnc2s1)c1nc(-c2ccccc2)sc1CCCN1CCOCC1 [Compound 13, 5-(3-morpholinopropyl)-2-phenyl-N-(2-(thiazolo[5,4-b]pyridin-2-yl)phenyl)thiazole-4-carboxamide]
  FOLD ACT. (percent maximum fold activation): B (Fold Activation≧150% and <300%)
  EC1.5: A (EC1.5≦1 uM)

## COCCN1CCN(Cc2cnc3sc(-c4ccccc4NC(=O)c4nc(-c5ccccc5)oc4C(F)(F)F)nc3c2)CC1 [Compound 14, N-(2-(6-((4-(2-methoxyethyl)piperazin-1-yl)methyl)thiazolo[5,4-b]pyridin-2-yl)phenyl)-2-phenyl-5-(trifluoromethyl)oxazole-4-carboxamide]
  FOLD ACT. (percent maximum fold activation): B (Fold Activation≧150% and <300%)
  EC1.5: A (EC1.5≦1 uM)

## COCCN1CCN(Cc2cnc3sc(-c4ccccc4NC(=O)c4nc(-c5ccccc5)oc4C)nc3c2)CC1 [Compound 15, N-(2-(6-((4-(2-methoxyethyl)piperazin-1-yl)methyl)thiazolo[5,4-b]pyridin-2-yl)phenyl)-5-methyl-2-phenyloxazole-4-carboxamide]
  FOLD ACT. (percent maximum fold activation): B (Fold Activation≧150% and <300%)
  EC1.5: A (EC1.5≦1 uM)

## Cc1oc(-c2ccccc2)nc1C(=O)Nc1ccccc1-c1nc2cc(CN3CCOCC3)cnc2s1 [Compound 16, 5-methyl-N-(2-(6-(morpholinomethyl)thiazolo[5,4-b]pyridin-2-yl)phenyl)-2-phenyloxazole-4-carboxamide]
  FOLD ACT. (percent maximum fold activation): B (Fold Activation≧150% and <300%)
  EC1.5: A (EC1.5≦1 uM)

## Cc1oc(-c2ccccc2)nc1C(=O)Nc1ccccc1-c1nc2cc(CN3CCCC3)cnc2s1 [Compound 17, 5-methyl-2-phenyl-N-(2-(6-(pyrrolidin-1-ylmethyl)thiazolo[5,4-b]pyridin-2-yl)phenyl)oxazole-4-carboxamide]
  FOLD ACT. (percent maximum fold activation): A (Fold activation≧300%)
  EC1.5: B (EC1.5>1 and ≦10 uM)

## O=C(Nc1ccccc1-c1nc2cccnc2s1)c1nc(-c2ccccc2)oc1CN1CCOCC1 [Compound 18, 5-(morpholinomethyl)-2-phenyl-N-(2-(thiazolo[5,4-b]pyridin-2-yl)phenyl)oxazole-4-carboxamide]
  FOLD ACT. (percent maximum fold activation): C (Fold Activation<150%)
  EC1.5: C (EC1.5>10 uM)

## COCCN1CCN(Cc2oc(-c3ccccc3)nc2C(=O)Nc2ccccc2-c2nc3cccnc3s2)CC1 [Compound 19, 5-((4-(2-methoxyethyl)piperazin-1-yl)methyl)-2-phenyl-N-(2-(thiazolo[5,4-b]pyridin-2-yl)phenyl)oxazole-4-carboxamide]
  FOLD ACT. (percent maximum fold activation): C (Fold Activation<150%)
  EC1.5: C (EC1.5>10 uM)

## O=C(Nc1ccccc1-c1nc2cccnc2s1)c1nc(-c2ccccc2)oc1CN1CCCC1 [Compound 20, 2-phenyl-5-(pyrrolidin-1-ylmethyl)-N-(2-(thiazolo[5,4-b]pyridin-2-yl)phenyl)oxazole-4-carboxamide]
  FOLD ACT. (percent maximum fold activation): B (Fold Activation≧150% and <300%)
  EC1.5: B (EC1.5>1 and ≦10 uM)

## CC(C)(C)OC(=O)N1CCN(Cc2oc(-c3ccccc3)nc2C(=O)Nc2ccccc2-c2nc3cccnc3s2)CC1 [Compound 21, tert-butyl 4-((2-phenyl-4-(2-(thiazolo[5,4-b]pyridin-2-yl)phenylcarbamoyl)oxazol-5-yl)methyl)piperazine-1-carboxylate]
  FOLD ACT. (percent maximum fold activation): C (Fold Activation<150%)
  EC1.5: C (EC1.5>10 uM)

## O=C(Nc1ccccc1-c1nc2cc(CN3CCCC3)cnc2s1)c1nc(-c2ccccc2)cs1 [Compound 22, 4-phenyl-N-(2-(6-(pyrrolidin-1-ylmethyl)thiazolo[5,4-b]pyridin-2-yl)phenyl)thiazole-2-carboxamide]
  FOLD ACT. (percent maximum fold activation): B (Fold Activation≧150% and <300%)
  EC1.5: A (EC1.5≦1 uM)

## COCCN1CCN(Cc2cnc3sc(-c4ccccc4NC(=O)c4nc(-c5ccccc5)cs4)nc3c2)CC1 [Compound 23, N-(2-(6-((4-(2-methoxyethyl)piperazin-1-yl)methyl)thiazolo[5,4-b]pyridin-2-yl)phenyl)-4-phenylthiazole-2-carboxamide]
  FOLD ACT. (percent maximum fold activation): A (Fold activation≧300%)
  EC1.5: A (EC1.5≦1 uM)

## O=C(Nc1ccccc1-c1nc2cc(CN3CCOCC3)cnc2s1)c1nc(-c2ccccc2)cs1 [Compound 24, N-(2-(6-(morpholinomethyl)thiazolo[5,4-b]pyridin-2-yl)phenyl)-4-phenylthiazole-2-carboxamide]
  FOLD ACT. (percent maximum fold activation): B (Fold Activation≧150% and <300%)
  EC1.5: A (EC1.5≦1 uM)
